# Test system: clinical patients
# Assay: Clinical patient encounters treated with vascular dysregulation techniques (trigger elimination plus calcium channel blocker and/or antiemetic); case reports
# Format: in vivo, human
# Details: person
# Protocol: At Step 36, a personal and family medical history of a patient is collected during a patient encounter. […] At Step 42, a list of environmental triggers for the one or more determined dysregulation pathways to be avoided is prepared for the patient. At Step 44, a list of medical triggers for the one or more determined dysregulation pathway to be avoided is prepared for the patient. At Step 46, the patient's current medication profile, if any, is adjusted for the one or more determined dysregulation pathways, thereby treating the medical condition via the one or more determined dysregulation pathways.
# At Step 50, a test is conducted to determine whether a patient has a chronic medical condition and has one or more common symptoms based on a personal and medical history collected during a patient encounter. […] The vascular dysregulation techniques include eliminating environmental triggers, eliminating medical triggers and adjusting patient's current medication profile.
structure (smiles),measurement,setting,value
COc1ccc([C@@H]2Sc3ccccc3N(CCN(C)C)C(=O)[C@@H]2OC(C)=O)cc1 [diltiazem],"Cold toes and fingers, Patient E","cold toes and fingers, migraine headaches, off caffeine",obtained warm fingers and toes
same,"Severe headaches and insomnia, Patient H","coffee and diet sodas eliminated, daily dose",severe headaches were eliminated and they are sleeping soundly
same,"Singing voice (unexpected effect), Patient E","off caffeine, presumed secondary to decreased post-nasal drip and nasal congestion",significantly stronger singing voice

# Source: patent US20050209289A1, “Method for vascular dysregulation” (priority 2004, published 2005)
